This passage reports Selectivity ratio and IC50 results from ChEMBL document CHEMBL1131495, “2,4-Diamino-6,7-dihydro-5H-cyclopenta[d]pyrimidine analogues of trimethoprim as inhibitors of Pneumocystis carinii and Toxoplasma gondii dihydrofolate reductase” (J Med Chem, 1998).

Molecules are shown by their SMILES. A value given as a limit tells only on which side of the number the result lay.

Broadly, the IC50 is the concentration that gives 50% inhibition. Low values mean higher potency, high ones lower potency.

Experiment [1] can be described thus: Selectivity ratio is the ratio between the IC50 values of rat liver and Pneumocystis carinii.
For experiment [2], the target named is T1, Dihydrofolate reductase (Pneumocystis carinii, UniProt P16184).
T1 sequence (P16184 whole entry): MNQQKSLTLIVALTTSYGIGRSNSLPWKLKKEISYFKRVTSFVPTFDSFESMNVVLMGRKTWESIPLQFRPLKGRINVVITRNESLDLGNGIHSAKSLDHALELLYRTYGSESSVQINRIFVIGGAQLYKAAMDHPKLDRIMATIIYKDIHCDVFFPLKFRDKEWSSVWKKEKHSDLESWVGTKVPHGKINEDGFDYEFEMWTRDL
Description: Compound was tested for inhibition activity against pneumocystis carinii (Pneumocystis carinii) Dihydrofolate reductase

Experiment [3] is described as follows: Selectivity ratio is the ratio between the IC50 values of rat liver and Toxoplasma gondii.
The target of experiment [4] is T2, Bifunctional dihydrofolate reductase-thymidylate synthase (Toxoplasma gondii, UniProt Q07422).
T2 sequence (Q07422 whole entry): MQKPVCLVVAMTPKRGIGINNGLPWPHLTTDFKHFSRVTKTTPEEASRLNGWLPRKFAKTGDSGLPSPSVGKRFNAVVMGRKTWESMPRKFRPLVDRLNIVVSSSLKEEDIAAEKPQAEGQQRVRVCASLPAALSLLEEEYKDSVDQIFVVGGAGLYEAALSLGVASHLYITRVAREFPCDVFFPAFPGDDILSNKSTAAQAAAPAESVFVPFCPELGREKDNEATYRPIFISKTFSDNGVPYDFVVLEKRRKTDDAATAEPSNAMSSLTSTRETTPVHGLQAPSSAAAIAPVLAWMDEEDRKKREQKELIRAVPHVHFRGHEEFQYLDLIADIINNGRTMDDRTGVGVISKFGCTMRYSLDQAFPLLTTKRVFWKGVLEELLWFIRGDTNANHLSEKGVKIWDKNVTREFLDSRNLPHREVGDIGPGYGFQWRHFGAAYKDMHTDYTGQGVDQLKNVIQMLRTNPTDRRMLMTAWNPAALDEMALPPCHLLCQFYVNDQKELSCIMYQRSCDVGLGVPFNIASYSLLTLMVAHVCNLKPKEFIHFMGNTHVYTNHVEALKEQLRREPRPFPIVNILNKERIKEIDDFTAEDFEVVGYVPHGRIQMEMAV
As to the kind of experiment: Compound was tested for inhibition activity against Toxoplasma gondii (Toxoplasma gondii) Dihydrofolate reductase.

For experiment [5], the target named is T3, Dihydrofolate reductase (Rattus norvegicus, UniProt Q920D2).
T3 sequence (Q920D2 whole entry): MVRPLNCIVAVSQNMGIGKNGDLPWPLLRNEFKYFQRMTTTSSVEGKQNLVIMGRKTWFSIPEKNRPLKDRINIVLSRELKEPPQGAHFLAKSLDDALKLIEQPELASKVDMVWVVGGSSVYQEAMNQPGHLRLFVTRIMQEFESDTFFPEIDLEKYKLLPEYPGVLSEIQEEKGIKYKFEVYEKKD
Description: Compound was tested for inhibition activity against rat liver lipophilic Dihydrofolate reductase (DHFR).

For `COc1cc(CCC2CCc3nc(N)nc(N)c32)cc(OC)c1OC` (stereo not given), the Selectivity ratio in experiment [1] turned out to be 0.28; in experiment [3], 3.64. Further, the 50% inhibitory concentration (IC50) at Dihydrofolate reductase [2] turned out to be 1.8 µM; in experiment [4], 0.14 µM; on Dihydrofolate reductase [5], 0.51 µM.

As for `COc1ccc(OC)c(Cc2cnc3nc(N)nc(N)c3c2C)c1` [PIRITREXIM], at Dihydrofolate reductase [5], the IC50 was determined as 0.015 µM.

Regarding `COc1cc(CC2CCc3nc(N)nc(N)c32)cc(OC)c1OC` (stereo not given), the figures for the IC50 (against Dihydrofolate reductase [2]; in experiment [4]; at Dihydrofolate reductase [5]) were more than 32 µM, 21 µM and 69 µM, respectively. In addition, in experiment [3], the Selectivity ratio is 3.29.

As to `COc1cc(CCCC2CCc3nc(N)nc(N)c32)cc(OC)c1OC` (stereo not given), the figures for the Selectivity ratio in experiment [1] and in experiment [3] were 0.17 and 1.57, respectively. For the same compound, the results for the IC50 (at Dihydrofolate reductase [2]; in experiment [4]; at Dihydrofolate reductase [5]) were 1.3 µM, 0.14 µM and 0.22 µM, respectively.
